# Measurements reported in PMC4232510, “Identification of Functionally Important Residues of the Rat P2X4 Receptor by Alanine Scanning Mutagenesis of the Dorsal Fin and Left Flipper Domains” (PLoS ONE, 2014).
# Substitutions are numbered along the chain they refer to. “And” between values parts separate entries of the source, which are not always exact repeats. Identical values can stand only once.
# Experiments:
# Assay type in all cases: cell-based
# rP2X4R D280A mutant = target: T1, rP2X4R D280A mutant (Rattus norvegicus, UniProt P51577, D280A); experiment: whole-cell patch clamp, HEK293T cells expressing mutant; conditions: for relative responsiveness: 100 µM agonist 2 s, relative to ATP (100%)
# T1 construct: expressed in transfected cells; host or cells: HEK293T
# T1 sequence (P51577 1-388 D280A): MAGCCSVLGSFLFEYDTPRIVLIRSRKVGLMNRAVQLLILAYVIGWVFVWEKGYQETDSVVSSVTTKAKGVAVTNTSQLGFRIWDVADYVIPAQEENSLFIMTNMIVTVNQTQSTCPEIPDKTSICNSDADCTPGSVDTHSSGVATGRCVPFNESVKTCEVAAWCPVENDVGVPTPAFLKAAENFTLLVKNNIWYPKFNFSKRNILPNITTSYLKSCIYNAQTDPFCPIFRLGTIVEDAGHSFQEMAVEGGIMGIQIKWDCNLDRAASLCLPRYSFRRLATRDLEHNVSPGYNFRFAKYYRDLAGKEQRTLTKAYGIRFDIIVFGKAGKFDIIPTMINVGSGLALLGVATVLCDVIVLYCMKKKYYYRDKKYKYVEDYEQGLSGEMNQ
# Experimental: (§1) To express the recombinant channels, we used human embryonic kidney (HEK) 293T cells (American Type Culture Collection, Rockville, MD, USA) grown in Dulbecco modified Eagle’s medium (Thermo Fisher Scientific, Waltham, MA) supplemented with 10% fetal bovine serum (Sigma-Aldrich, St Louis, MO), 50 U/ml penicillin and 50 µg/ml streptomycin (both Thermo Fisher Scientific, Waltham, MA) in a humidified 5% CO2 and 95% air at 37°C. Cells were cultured in 75 cm^2 plastic culture flasks (NUNC, Rochester, NY) for 36–72 hours until reaching 80–95% confluence. Before the day of transfection, the cells were plated on 35 mm culture dishes (Sarstedt, Newton, NC) and incubated at 37°C for at least 24 h. Transfection was done using 2 µg of either WT or mutant receptor DNA with 2 µl of JetPrime reagent in 2 ml of Dulbecco modified Eagle’s medium, according to manufacturer’s instructions (PolyPlus-transfection, Illkirch, France). Transfected cells were identified by the fluorescence signal of EGFP using the Olympus IX71 inverted research microscope with fluorescence illuminators (Model IX71; Olympus, Melville, NY).
# (§2) cDNAs encoding the sequences of the rP2X4 and mutated subunits were subcloned into the pIRES2-EGFP vector (Clontech, Mountain View, CA, USA). To generate the mutants, oligonucleotides (synthesized and provided by VBC-Genomics, Vienna, Austria or Sigma Aldrich) containing specific mutagenesis mismatches were introduced into the rP2X4/pIRES2-EGFP template using PfU Ultra DNA polymerase (Thermo Fisher Scientific). A High-Speed Plasmid Mini Kit (Geneaid, Taipei City, Taiwan) was used to isolate the plasmids for transfection. Dye terminator cycle sequencing (ABI PRISM 3100, Applied Biosystems, Foster City, CA) was used to identify and verify the presence of the mutations. The sequencing was performed by the DNA Sequencing Laboratory, Institute of Microbiology, ASCR, Prague.
# (§3) ATP-induced currents were recorded from whole cells clamped to −60 mV using an Axopatch 200B patch-clamp amplifier (Axon Instruments, Union City, CA). The recordings were captured and stored using the Digidata 1322A and pClamp9 software package (Axon Instruments). During the experiments, the cell culture was perfused with a bath solution containing: 142 mM NaCl, 3 mM KCl, 2 mM CaCl2, 1 mM MgCl2, 10 mM 4-(2-Hydroxyethyl)piperazine-1-ethanesulfonic acid (HEPES) and 10 mM D-glucose, adjusted to pH 7.3 with 1 M NaOH. The patch electrodes were filled with a solution containing: 154 mM CsCl, 11 mM EGTA and 10 mM HEPES, adjusted to pH 7.2 with 1.6 M CsOH. The whole-cell configuration was used to abolish the influence of natively present metabotropic receptors for ATP and we used intracellular cesium to block any kind of possible background potassium conductance. Potency of ATP was measured based on the activation of naïve (not previously stimulated) receptors using a short (2–5 s) application of various concentrations of ATP. The results are expressed as molar concentration of ATP required to produce 50% of the maximal response (EC50). One or two responses were recorded from one cell, if not otherwise stated, and responses from different cells were pooled. The maximum current amplitude (Imax) was measured in response to application of supramaximal concentrations (100–1000 µM) of ATP. Responsiveness to P2XR agonists 2-MeS-ATP, ATPγS, BzATP, and α,β-meATP, all applied in 100 µM concentration, was expressed as percentage of response in comparison to 100 µM ATP treatment for selected mutants. In all mutants, the whole cell currents were also measured in the presence of 3 µM IVM, which was dissolved in dimethyl sulfoxide, stored in stock solutions at 10 mM, and diluted to required concentrations in bath solution in the day of experiment. The control and drug containing solutions were applied via a rapid (exchange time 30–40 ms) perfusion system (RSC-200, BIOLOGIC, Claix, France). All other chemicals are from Sigma-Aldrich. […]
# rP2X4R L284A mutant = target: T2, rP2X4R L284A mutant (Rattus norvegicus, UniProt P51577, L284A); experiment: as above; conditions: for relative responsiveness: 100 µM agonist 2 s, relative to ATP (100%)
# T2 construct: expressed in transfected cells; host or cells: HEK293T
# T2 sequence (P51577 1-388 L284A): T1 sequence (P51577 1-388 D280A) with A280D, L284A
# Experimental: as §1, §2, §3
# wild type (WT) rP2X4R = target: T3, wild type (WT) rP2X4R (Rattus norvegicus, UniProt P51577); experiment: whole-cell patch clamp, HEK293T cells expressing WT receptor; conditions: for relative responsiveness: 100 µM agonist 2 s, relative to ATP (100%); for EC50: naïve receptors, 2–5 s application
# T3 construct: expressed in transfected cells; host or cells: HEK293T
# T3 sequence (P51577 1-388): T1 sequence (P51577 1-388 D280A) with A280D
# Experimental: as §1, §2, §3
# [1] = 100 µM ATP 60 s, biexponential fit
# [2] = contribution of τdes2, 100 µM ATP 60 s
# [3] = decay after removal of 1 or 3 µM ATP, 3 µM IVM
# [4] = naïve receptors, 2–5 s application
# [5] = 3 µM IVM 4-6 min vs IVM-untreated
compound,measurement,setting,value
"CSc1nc(N)c2ncn([C@@H]3O[C@H](COP(=O)(O)OP(=O)(O)OP(=O)(O)O)[C@@H](O)[C@H]3O)c2n1 [2-MeS-ATP, 2-(Methylthio)adenosine 5′-triphosphate]",relative responsiveness,rP2X4R D280A mutant,56.3±7.8%
same,relative responsiveness,rP2X4R L284A mutant,69.0±3.0%
same,relative responsiveness,wild type (WT) rP2X4R,67% and 67.3±4.6%
same,EC50,wild type (WT) rP2X4R,7.9 ± 1 µM
2′(3′-O-(4-Benzoylbenzoyl)adenosine 5′-triphosphate [BzATP],relative responsiveness,rP2X4R D280A mutant,25.4±1.5%
same,relative responsiveness,rP2X4R L284A mutant,20.6±0.2 %
same,relative responsiveness,wild type (WT) rP2X4R,38% and 38.2±3.4%
same,EC50,wild type (WT) rP2X4R,11.1 ± 2.9 µM
Nc1ncnc2c1ncn2[C@@H]1O[C@H](COP(=O)(O)OP(=O)(O)OP(=O)(O)O)[C@@H](O)[C@H]1O [ATP],EC50 rightward shift compared to WT,rP2X4R D280A mutant,approximately 10 fold
same,τdes1,rP2X4R D280A mutant; [1],3.9 ± 1.2 s
same,τdes2,rP2X4R D280A mutant; [1],22.9 ± 7.8 s
same,Imax,rP2X4R D280A mutant; 100–1000 µM ATP,0.7 ± 0.1 nA
same,Imax+IVM,rP2X4R D280A mutant; ATP after 3 µM IVM 4-6 min,3.6 ± 0.4 nA
same,A2 /(A1+A2),rP2X4R D280A mutant; [2],62 ± 6%
same,τoff +IVM,rP2X4R D280A mutant; [3],5.5 ± 0.3 s
same,EC50,rP2X4R D280A mutant; [4],26 ± 8.2 µM
same,τdes,"rP2X4R D280A mutant; weighted, 100 µM ATP 60 s",15 ± 3.7 s
same,τdes1,rP2X4R L284A mutant; [1],0.8 ± 0.1 s
same,τdes2,rP2X4R L284A mutant; [1],7.2 ± 1.0 s
same,Imax,rP2X4R L284A mutant; 100–1000 µM ATP,2.4 ± 0.3 nA
same,Imax+IVM,rP2X4R L284A mutant; ATP after 3 µM IVM 4-6 min,4.1 ± 0.3 nA
same,A2 /(A1+A2),rP2X4R L284A mutant; [2],60 ± 5%
same,τoff +IVM,rP2X4R L284A mutant; [3],28 ± 2.3 s
same,EC50,rP2X4R L284A mutant; [4],3.9 ± 1.9 µM
same,τdes,"rP2X4R L284A mutant; weighted, 100 µM ATP 60 s",4.8 ± 0.9 s
same,τdes1,wild type (WT) rP2X4R; [1],1.3 ± 0.2 s
same,τdes2,wild type (WT) rP2X4R; [1],9.0 ± 0.7 s
same,relative responsiveness,wild type (WT) rP2X4R,100%
same,Imax,wild type (WT) rP2X4R; 100–1000 µM ATP,2.2 ± 0.2 nA
same,Imax+IVM,wild type (WT) rP2X4R; ATP after 3 µM IVM 4-6 min,3.4 ± 0.3 nA
same,A2 /(A1+A2),wild type (WT) rP2X4R; [2],63 ± 3%
same,τoff +IVM,wild type (WT) rP2X4R; [3],21 ± 1.0 s
same,EC50,wild type (WT) rP2X4R,2.3 ± 0.4 µM
same,τdes,"wild type (WT) rP2X4R; weighted, 100 µM ATP 60 s",6.0 ± 0.4 s
"Nc1ncnc2c1ncn2C1OC(COP(=O)(O)CP(=O)(O)OP(=O)(O)O)C(O)C1O (stereo not drawn) [α,β-meATP, α,β-methyleneadenosine 5′-triphosphate]",relative responsiveness,rP2X4R D280A mutant,33.1±6.0%
same,relative responsiveness,rP2X4R L284A mutant,22.2±3.9%
same,relative responsiveness,wild type (WT) rP2X4R,32% and 31.8±3.3%
same,EC50,wild type (WT) rP2X4R,62 ± 18 µM
"Nc1ncnc2c1ncn2[C@@H]1O[C@H](CO[P@](=O)(O)O[P@](=O)(O)O[P@@](=O)(O)S)[C@@H](O)[C@H]1O [ATPγS, Adenosine 5′-(γ-thio)triphosphate]",relative responsiveness,rP2X4R D280A mutant,55.7±3.8%
same,relative responsiveness,rP2X4R L284A mutant,32.4±8.2%
same,relative responsiveness,wild type (WT) rP2X4R,50% and 49.6±3.5%
same,EC50,wild type (WT) rP2X4R,8.4 ± 1.8 µM
"CC[C@H](C)[C@H]1O[C@]2(CC[C@@H]1C)C[C@@H]1C[C@@H](C/C=C(\C)[C@@H](O[C@H]3C[C@H](OC)[C@@H](O[C@H]4C[C@H](OC)[C@@H](O)[C@H](C)O4)[C@H](C)O3)[C@@H](C)/C=C/C=C3\CO[C@@H]4[C@H](O)C(C)=C[C@@H](C(=O)O1)[C@]34O)O2 [IVM, ivermectin]",Fold incr. Imax,rP2X4R D280A mutant; [5],5.1 ± 0.5 fold
same,Fold incr. Imax,rP2X4R L284A mutant; [5],1.7 ± 0.1 fold
same,Fold incr. Imax,wild type (WT) rP2X4R; [5],1.7 ± 0.2 fold
